Experimental data published in patent US6448255B1, “Imidazo-isoquinolin-5-one derivatives, pyrimido-isoquinolin-6-one derivatives and imidazo-naphthyridin-5-one derivatives” (Wyeth, priority 2000, dated 2002).

Tests used:
[1] = system: blood serum HDL cholesterol; assay: determination of HDL cholesterol in serum of cholesterol/cholic acid-fed rats; type: in vivo, Male Sprague-Dawley rats; conditions: Dose 100 mg/kg/day mixed in diet, 8 days; rats fed chow with 0.25% cholic acid and 1.0% cholesterol; serum HDL cholesterol by FPLC
Description: The ability of the compounds of this invention to increase blood serum HDL levels was established by the following standard experimental procedure for determination of HDL cholesterol:
Male Sprague-Dawley rats weighing 200-225 g were housed two per cage and fed Purina Rodent Chow Special Mix 5001-S supplemented with 0.25% cholic acid and 1.0% cholesterol and water ad libitum for 8 days. Each test substance was administered to a group of six rats fed the same diet with the test diet mixed in as 0.005-0.1% of the total diet. Body weight and food consumption were recorded prior to diet administration and at termination. Typical doses of the test substances were 5-100 mg/kg/day.
At termination, blood was collected from anesthetized rats and the serum was separated by centrifugation. Total serum cholesterol was assayed using the Sigma Diagnostics enzymatic kit for the determination of cholesterol, Procedure No. 352, modified for use with ninety-six well microtiter plates. After reconstitution with water the reagent contains 300 U/I cholesterol oxidase, 100 U/I cholesterol esterase, 1000 U/I horse radish peroxidase, 0.3 mmoles/l 4-aminoantipyrine and 30.0 mmoles/l p-hydroxybenzenesulfonate in a pH 6.5 buffer. In the reaction cholesterol was oxidized to produce hydrogen peroxide which was used to form a quinoneimine dye. The concentration of dye formed was measured spectrophotometrically by absorbency at 490 nm after incubation at 25° C. for 30 minutes. The concentration of cholesterol was determined for each serum sample relative to a commercial standard from Sigma.
HDL cholesterol concentrations in serum were determined by separation of lipoprotein classes by fast protein liquid chromatography (FPLC) by a modification of the method of Kieft et al., J. Lipid Res., 32 (1991) 859-866. 25 ul of serum was injected onto Superose 12 and Superose 6 (Pharmacia), in series, with a column buffer of 0.05 M Tris (2-amino-2-hydroxymethyl-1,3-propanediol) and 0.15 M sodium chloride at a flow rate of 0.5 ml/min. The eluted sample was mixed on line with Boehringer-Mannheim cholesterol reagent pumped at […]. The combined eluents were mixed and incubated on line through a knitted coil (Applied Biosciences) maintained at a temperature of 45 C. The eluent was monitored by measuring absorbence at 490 nm and gave a continuous absorbence signal proportional to the cholesterol concentration. The relative concentration of each lipoprotein class was calculated as the percent of total absorbence. HDL cholesterol concentration, in serum, was calculated as the percent of total cholesterol as determined by FPLC multiplied by the total serum cholesterol concentration.

CC1(C)CN2C(=O)c3ccccc3C(O)(c3ccccc3)C2=N1 (stereo not drawn) [Example 1, 10-Hydroxy-2,2-dimethyl-10-phenyl-2,10-dihydroimidazo[1,2-b]isoquinolin-5(3H)-one]
melting point: 186 to 188 °C
HDL Cholesterol Level Increase (%) [1]: 55%

O=C1c2ccccc2C(O)(c2ccc(F)cc2)C2=NCCCN12 (stereo not drawn) [Example 2, 11-(4-Fluorophenyl)-11-hydroxy-2,3,4,11-tetrahydro-6H-pyrimido[1,2-b]isoquinolin-6-one]
melting point: 126 to 128 °C
HDL Cholesterol Level Increase (%) [1]: 22%

CC1(C)CN2C(=O)c3ccccc3C(O)(c3ccc(F)cc3)C2=N1 (stereo not drawn) [Example 3, 10-(4-Fluorophenyl)-10-hydroxy-2,2-dimethyl-2,10-dihydroimidazo[1,2-b]isoquinolin-5(3H)-one]
melting point: 168 to 170 °C
HDL Cholesterol Level Increase (%) [1]: 90%

O=C1c2ccccc2C(O)(c2ccc(F)cc2)C2=NC3CCCCC3N12 (stereo not drawn) [Example 4, 6-(4-Fluorophenyl)-6-hydroxy-1,3,4,4a,6,12a-hexahydrobenzimidazo[1,2-b]isoquinolin-11(2H)-one]
melting point: 203 to 205 °C
HDL Cholesterol Level Increase (%) [1]: 21%

C[C@@H]1CN2C(=O)c3ccccc3[C@@](O)(c3ccc(F)cc3)C2=N1 [Example 5, (2R, 10S)-10-(4-Fluorophenyl)-10-hydroxy-2-methyl-2,10-dihydroimidazo[1,2-b]isoquinolin-5(3H)-one]
melting point: 229 to 232 °C
HDL Cholesterol Level Increase (%) [1]: 105%

C[C@H]1CN2C(=O)c3ccccc3[C@@](O)(c3ccc(F)cc3)C2=N1 [Example 6, (2S,10S)-10-(4-Fluorophenyl)-10-hydroxy-2-methyl-2,10-dihydrolmidazo[1,2-b]isoquinolin-5(3H)-one]
HDL Cholesterol Level Increase (%) [1]: 38%

CC1(C)CN2C(=O)c3ncccc3C(O)(c3ccc(Cl)cc3)C2=N1 (stereo not drawn) [Example 7, 10-(4-Chlorophenyl)-10-hydroxy-2,2-dimethyl-2,10-dihydroimidazo[2,1-g][1,7]naphthyridin-5(3H)-one]
melting point: 257 to 260 °C
HDL Cholesterol Level Increase (%) [1]: 49%

O=C1c2ccccc2C(O)(c2ccc(Cl)cc2)C2=NCCCN12 (stereo not drawn) [Example 8, 11-(4-Chlorophenyl)-11-hydroxy-2,3,4,11-tetrahydro-6H-pyrimido[1,2-b]isoquinolin-6-one]
melting point: 128 to 130 °C

CC1(C)CN2C(=O)c3ccccc3C(O)(c3ccc(Cl)cc3)C2=N1 (stereo not drawn) [Example 10, 10-(4-Chlorophenyl)-10-hydroxy-2,2-dimethyl-2,10-dihydroimidazo[1,2-b]isoquinolin-5(3H)-one]
melting point: 181 to 183 °C

O=C1c2ccccc2C(O)(c2ccc(Cl)cc2)C2=NCCN12 (stereo not drawn) [Example 11, 10-(4-Chlorophenyl)-10-hydroxy-2,10-dihydroimidazo[1,2-b]isoquinolin-5(3H)-one]
melting point: 235 to 237 °C

O=C1c2ccccc2C(O)(c2ccccc2)C2=NCCN12 (stereo not drawn) [Example 12, 10-Hydroxy-10-phenyl-2,10-dihydroimidazo[1,2-b]isoquinolin-5(3H)-one]
melting point: 263 to 265 °C

O=C1c2ccccc2C(O)(c2ccc(Br)cc2)C2=NCCN12 (stereo not drawn) [Example 13, 10-(4-Bromophenyl)-10-hydroxy-2,10-dihydroimidazo[1,2-b]isoquinolin-5(3H)-one]
melting point: 212 to 215 °C
